The target of experiment [1] is T1, recombinant, human liver GO (the HAO1 gene product) (Homo sapiens, UniProt Q9UJM8).
T1 sequence (Q9UJM8 1-370): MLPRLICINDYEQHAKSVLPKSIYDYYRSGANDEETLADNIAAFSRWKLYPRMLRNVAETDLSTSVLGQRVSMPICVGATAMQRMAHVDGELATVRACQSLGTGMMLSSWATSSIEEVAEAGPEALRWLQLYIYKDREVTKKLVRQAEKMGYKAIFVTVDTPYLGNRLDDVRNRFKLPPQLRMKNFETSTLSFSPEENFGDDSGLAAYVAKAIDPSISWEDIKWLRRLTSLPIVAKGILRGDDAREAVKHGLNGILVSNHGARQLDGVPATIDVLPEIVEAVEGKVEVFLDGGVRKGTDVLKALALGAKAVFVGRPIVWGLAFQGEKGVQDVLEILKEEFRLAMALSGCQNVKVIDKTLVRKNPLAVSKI
Description: GO inhibition, coupled DCIP assay. It is filed as biochemical. Particulars: 37° C., 100 mM potassium phosphate pH 7.5, 75 μM DCIP, 3 mM glycolate; read-out: apparent Ki. The method, then:
Testing of GO inhibitors. The inhibition of recombinant, human liver GO (the HAO1 gene product) is readily determined by a coupled assay that contains 2,6-dichloroindophenol (DCIP) (Murray et al. Biochemistry 47, 2439-2449, 2008). Briefly, GO is pre-incubated at 37° C. with or without inhibitor in 100 mM potassium phosphate pH 7.5 (0.1% DMSO final) for […]. An aliquot of pre-warmed DCIP and glycolate is added to start the reaction (final concentration 75 μM DCIP, 3 mM glycolate). The reaction rate is determined by monitoring the decrease at 600 nm (extinction coefficient of 21 mM^−1 cm^−1).

A further experiment deals with T2, human HYPDH (Homo sapiens, UniProt Q9UF12).
T2 construct: Only the constructs containing the residues 147-515 and 156-515 were >96% loaded with FAD+ and active; made in house; host or cells: Escherichia coli
T2 sequence (Q9UF12 71-439 limits assumed): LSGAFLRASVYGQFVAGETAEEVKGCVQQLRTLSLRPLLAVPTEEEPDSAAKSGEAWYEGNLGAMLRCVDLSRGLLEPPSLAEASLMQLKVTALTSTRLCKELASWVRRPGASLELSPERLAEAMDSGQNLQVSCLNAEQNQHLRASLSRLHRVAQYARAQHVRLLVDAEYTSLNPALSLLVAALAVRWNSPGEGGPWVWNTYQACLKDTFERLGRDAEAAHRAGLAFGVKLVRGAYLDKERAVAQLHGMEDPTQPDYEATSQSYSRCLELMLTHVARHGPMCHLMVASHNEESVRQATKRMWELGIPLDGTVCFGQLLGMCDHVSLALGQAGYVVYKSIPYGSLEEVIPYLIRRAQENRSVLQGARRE
The experiment is described as follows: Anaerobic titration of the FAD spectrum of HYPDH. It is filed as binding.

On to `CCCCCCCCCCCCSc1snnc1C(=O)O` [CDST], for which the Ki in experiment [1] is roughly 0.015 µM. As for `O=C(O)[C@@H]1C[C@@H](O)CN1` [Hyp, Hydroxyproline], the Kd at human HYPDH is 125 µM.

For orientation: Kd means the equilibrium constant for the complex coming apart. Higher therefore signals lower affinity.

Values taken from patent US20200261419A1, “COMBINATIONS FOR THE TREATMENT OF KIDNEY STONES” (Wake Forest University Health Sciences, priority 2015, published 2020).
